In PMC10992699, “Comparative structure activity and target exploration of 1,2-diphenylethynes in Haemonchus contortus and Caenorhabditis elegans” (International Journal for Parasitology: Drugs and Drug …, 2024):
Read-outs that look alike come from different tables or passages of the source.

How the values were obtained:
C. elegans young adults = assay: C. elegans young adult motility dose-response assay; assay type: cell-based, Caenorhabditis elegans; details: for IC50: read-out: Worm motility IC50 ± SD, C. elegans young adults
Method: The eggs were then washed five times with 15 mL of sterile M9 buffer (centrifugation at 500×g, 2 min). […] were collected from plates and washed twice with sterile M9 buffer by centrifugation (500×g, 2 min) to remove E. coli OP50, and then resuspended to a concentration of 100 larvae per 50 μL in sterile (autoclaved) LB*. The dose-response assay for C. elegans followed a well-established protocol ([Taki et al., 2021a]) and was employed to evaluate the potency of hit compounds against this nematode. […] Two compounds, monepantel (ZolvixTM; Elanco, Australia) and moxidectin ([…], France) were used as positive controls and prepared in the same manner as the test compounds. […] The test compounds and positive control compounds were arrayed in triplicate across individual flat-bottom 96-well microplates (cat. no. 3596; Corning, Corning, NY, USA), with six wells on each plate containing the negative control. Added to each well were 100 C. elegans in 50 μL of LB* to give a final volume of 100 μL. Plates were then placed in an incubator ([…], model no. IMP180, Thermo Fisher Scientific, USA) at 20 °C for 40 h. […] Over 15 min, disturbance of an infrared beam in individual wells was recorded as an 'activity count'. Raw 'activity counts' for each well were normalised to the negative controls. The compound concentrations were log10-transformed and fitted using a variable slope four-parameter equation, using the ordinary least squares fit model, employing the program Prism (v.9.1.0 GraphPad Software, San Diego, CA, USA).

H. contortus xL3s = assay: H. contortus xL3 motility dose-response assay; assay type: cell-based, Haemonchus contortus; details: for IC50: read-out: Worm motility IC50 ± SD, H. contortus xL3s
Method: Immediately prior to use in assays, H. contortus L3s were exsheathed via exposure to 0.15 % (v/v) sodium hypochlorite for 20 min at 38 °C ([Preston et al., 2015]), achieving an exsheathment rate of 90 %. The larvae were then immediately washed five times with 50 mL of sterile physiological saline (pH 7.0) by centrifugation at 2000×g (5 min) and resuspended (at a concentration of 300 xL3s per 50 μL) in sterile (autoclaved) lysogeny broth (LB; cf. [Bertani, 1951]; [Taki et al., 2021b]), supplemented with final concentrations of 100 IU/mL of penicillin, 100 μg/mL of streptomycin and 0.25 μg/mL of amphotericin B (Fungizone®, cat. No. 15240-062, Gibco, Thermo Fisher Scientific, Waltham, MA, USA); this supplemented LB was designated LB*.
The dose-response assay for H. contortus followed a well-established protocol ([Taki et al., 2021b]); it was employed to evaluate the potency of hit compounds against this nematode. Test compounds were assessed individually for an effect on the motility of xL3s (10-point, 2-fold serial dilution in LB*, 40 μM–[…]). […] A solution of LB* was used as a negative control. The test compounds and positive control compounds (monepantel and moxidectin) were arrayed in triplicate across individual flat-bottom 96-well microplates, with six wells on each plate containing the negative control. Added to each well were 300 xL3s of H. contortus in 50 μL of LB* to give a final volume of 100 μL. Plates were then placed in a CO2 incubator (10 % (v/v) CO2, 38 °C, >90 % humidity; Forma, model no. 311, Thermo Fisher Scientific, USA). […] Over a period of 15 min, disturbance of an infrared beam in individual wells was recorded as an ‘activity count’. Raw ‘activity counts’ for individual wells were normalised to the negative-controls. The compound concentrations were log10-transformed and fitted using a variable slope four-parameter equation, using the ordinary least squares fit model, employing Prism (v.9.1.0 GraphPad Software, San Diego, CA, USA). Larval development was established at 168 h of incubation with compound, as described previously ([Preston et al., 2015]). The phenotypes of larvae were examined using a microscope ([Preston et al., 2015]) and recorded.

[1] = test system: adult females of Haemonchus contortus; assay: Motility of adult female H. contortus in vitro; assay type: cell-based; details: 40 μM; 24 h of incubation; normalised to negative control
Method: Adult H. contortus were collected from the abomasa of sheep infected for 10 weeks, washed extensively with phosphate-buffered saline (PBS, pH 7.4) and subsequently in RPMI 1640 media supplemented with final concentrations of 2 mM L-glutamine, 100 IU/mL of penicillin, 100 μg/mL of streptomycin and 0.25 μg/mL of amphotericin B (Thermo Fisher Scientific, Scoresby, VIC, Australia; this supplemented RPMI was designated RPMI*). Female and male worms were collected and separated immediately prior to compound testing.
The activity of UMW-9729 and six derivatives (12, 14, 15, 16, 18 and 25) was assessed on adult female specimens of H. contortus in an established assay ([Taki et al., 2020]). The compound was added in triplicate to the wells of a 24-well plate (cat. no. 3524; Corning, USA) at a concentration of 40 μM in 500 μL of RPMI* (RPMI supplemented with final concentrations of 2 mM L-glutamine, 100 IU/mL of penicillin, 100 μg/mL of streptomycin and 0.25 μg/mL of amphotericin B; Thermo Fisher Scientific, Scoresby, VIC, Australia). Two positive-control compounds, monepantel and moxidectin, and a negative control containing 1 % (v/v) DMSO only, were included in triplicates on the same plate. Three adult females were added to each of the triplicate wells containing either the test compound or the controls and placed in a CO2 incubator (10 % (v/v) CO2, 40 °C, >90 % relative humidity) for 1 day. A video recording (30 s) of each well was taken at 3 h, 6 h, 12 h and 24 h during the total incubation period to assess the reduction in worm motility, which was scored as 3 (“good”), 2 (“low”), 1 (“very low”) or 0 (“no movement”; cf. [Taki et al., 2020]). For each test or control compound, the motility scores for each of the triplicate wells were calculated, normalised with reference to the negative control (100 % motility) and recorded as a percentage.

[2] = Caenorhabditis elegans, 40 h, young adults, 40 h incubation, three independent assays in triplicate
[3] = young adults, 40 h incubation, three independent assays in triplicate
[4] = Haemonchus contortus, 90 h, xL3s, 90 h incubation (table title), three independent assays in triplicate
[5] = xL3s, 90 h incubation (table title), three independent assays in triplicate

Structure (SMILES) | IC50 (C. elegans young adults; [2]) [µM] | IC50 (H. contortus xL3s; [4]) [µM] | other results
Cc1cccc(C#Cc2ccc(-c3ccn[nH]3)cc2)c1 [Compound 11] | > 40 | 13 ± 5.7 | Worm motility IC50 ± SD, C. elegans young adults (C. elegans young adults; [3]): lost activity
C(#Cc1ccc(-c2ccn[nH]2)cc1)c1ccncc1 [Compound 22] | > 40 | > 40 | Worm motility IC50 ± SD, H. contortus xL3s (H. contortus xL3s; [5]): inactive
N#Cc1ccc(C#Cc2ccc(-c3ccn[nH]3)cc2)cc1 [Compound 21] | > 40 | 6.7 ± 4.2 | –
COc1ccccc1C#Cc1ccc(-c2ccn[nH]2)cc1 [Compound 6] | > 40 | > 40 | –
C[C@](C#N)(COc1cc(C#N)ccc1C(F)(F)F)NC(=O)c1ccc(SC(F)(F)F)cc1 [Monepantel, monepantel, reference compound] | 0.03 ± 0.01 | 0.6 ± 0.2 | –
C(#Cc1ccc(-c2ccn[nH]2)cn1)c1ccccc1 [Compound 24] | > 40 | 24 ± 8.5 | Worm motility IC50 ± SD, C. elegans young adults (C. elegans young adults; [3]): loss in activity
Clc1cccc(C#Cc2ccc(-c3ccn[nH]3)cc2)c1 [Compound 15] | 8.2 ± 7.8 | > 40 | reduction of worm motility, adult females of H. contortus [1]: 23%; fold increased activity compared to UMW-9729, C. elegans (C. elegans young adults; ratio of motility IC50 to parent UMW-9729): ~2 fold; Worm motility IC50 ± SD, H. contortus xL3s (H. contortus xL3s; [5]): loss of activity
C(#Cc1cccnc1)c1ccc(-c2ccn[nH]2)cc1 [Compound 16] | > 40 | 6.8 ± 0.1 | reduction of worm motility, adult females of H. contortus [1]: 15%; Worm motility IC50 ± SD, C. elegans young adults (C. elegans young adults; [3]): loss of activity; Worm motility IC50 ± SD, H. contortus xL3s (H. contortus xL3s; [5]): equipotent
FC(F)(F)c1cccc(C#Cc2ccc(-c3ccn[nH]3)cc2)c1 [Compound 12] | 12 ± 7 | 8.2 ± 1.9 | reduction of worm motility, adult females of H. contortus [1]: 29%
Cc1ccc(C#Cc2ccc(-c3ccn[nH]3)cc2)cc1 [Compound 18] | > 40 | 2 ± 0.1 | reduction of worm motility, adult females of H. contortus [1]: 15%; Worm motility IC50 ± SD, C. elegans young adults (C. elegans young adults; [3]): inactive; fold increased activity compared to UMW-9729, H. contortus larvae (H. contortus xL3s; ratio of xL3 motility IC50 to parent UMW-9729): 3 fold
C#Cc1ccc(-c2ccn[nH]2)cc1 [Compound 27, 5-(4-ethynylphenyl)-1H-pyrazole] | > 40 | > 40 | Worm motility IC50 ± SD, H. contortus xL3s (H. contortus xL3s; [5]): complete loss of activity
FC(F)(F)Oc1cccc(C#Cc2ccc(-c3ccn[nH]3)cc2)c1 [Compound 13] | > 40 | > 40 | –
Fc1cccc(C#Cc2ccc(-c3ccn[nH]3)cc2)c1 [Compound 14] | 9 | 5.2 ± 0.9 | reduction of worm motility, adult females of H. contortus [1]: 29%; IC50 (C. elegans young adults; [3]): 8 ± 1.8 µM
C(#Cc1cccc(-c2ccn[nH]2)c1)c1ccccc1 [Compound 26, 5-(3-(phenylethynyl)phenyl)-1H-pyrazole] | > 40 | > 40 | Worm motility IC50 ± SD, H. contortus xL3s (H. contortus xL3s; [5]): complete loss of activity
C(#Cc1ccccn1)c1ccc(-c2ccn[nH]2)cc1 [Compound 10] | > 40 | 8.7 ± 2.5 | Worm motility IC50 ± SD, C. elegans young adults (C. elegans young adults; [3]): loss of compound activity
FC(F)(F)c1ccccc1C#Cc1ccc(-c2ccn[nH]2)cc1 [Compound 7] | > 40 | > 40 | –
Clc1ccc(C#Cc2ccc(-c3ccn[nH]3)cc2)cc1 [Compound 20] | > 40 | 3.7 ± 1.1 | –
Fc1ccccc1C#Cc1ccc(-c2ccn[nH]2)cc1 [Compound 8] | 3.7 ± 1.9 | 12 | IC50 (H. contortus xL3s; [5]): 13 ± 4.5 µM
Clc1ccccc1C#Cc1ccc(-c2ccn[nH]2)cc1 [Compound 9] | > 40 | 4.8 ± 0.7 | –
Oc1cccc(C#Cc2ccc(-c3ccn[nH]3)cc2)c1 [Compound 17] | 25 ± 7 | 29 ± 12 | –
Cc1nc(-c2ccc(C#Cc3ccccc3)cc2)no1 [Compound 32] | 18 ± 11 | 5.1 ± 0.5 | –
c1ccc(CCc2ccc(-c3ccn[nH]3)cc2)cc1 [Compound 28] | > 40 | 16 ± 4.9 | –
CO/N=C1\C[C@]2(C[C@@H]3C[C@@H](C/C=C(\C)C[C@@H](C)/C=C/C=C4\CO[C@@H]5[C@H](O)C(C)=C[C@@H](C(=O)O3)[C@]45O)O2)O[C@H](/C(C)=C/C(C)C)[C@H]1C [Moxidectin, moxidectin, reference compound] | 0.003 | 18 ± 9.1 | –
COc1ccc(C#Cc2ccc(-c3ccn[nH]3)cc2)cc1 [Compound 19] | > 40 | > 40 | Worm motility IC50 ± SD, H. contortus xL3s (H. contortus xL3s; [5]): inactive
C[Si](C)(C)C#Cc1ccc(-c2ccn[nH]2)cc1 [Compound 23] | – | – | IC50 (C. elegans young adults; Caenorhabditis elegans, 40 h): > 40 µM; IC50 (H. contortus xL3s; Haemonchus contortus, 90 h): > 40 µM; Worm motility IC50 ± SD, H. contortus xL3s (H. contortus xL3s; [5]): complete loss of activity
